In brackets after ≈: the same amount, converted by molar mass. Activity calls are given as the source filed them. The rule behind the calls is not given here.
Experiments:
[1] = Metabolic stability in rat liver microsomes assessed as compound remaining at 1 uM measured after 60 mins by LC-MS/MS analysis; format: ADME, Microsome; settings: read-out: Stability
[2] = system: Staphylococcus aureus; test: Antibacterial activity against fluoroquinolone/methicillin resistant Staphylococcus aureus Mu50 incubated for 16 to 18 hrs by absorbance based analysis; format: functional; settings: time 16-18 hrs
[3] = Metabolic stability in human liver microsomes assessed as microsomal intrinsic clearance at 1 uM by LC-MS/MS analysis; format: ADME, Microsome; settings: read-out: CLH
[4] = Metabolic stability in human liver microsomes assessed as drug elimination rate constant at 1 uM by LC-MS/MS analysis; format: ADME, Microsome
[5] = Metabolic stability in rat liver microsomes assessed as liver intrinsic clearance at 1 uM by LC-MS/MS analysis; format: ADME, Microsome; settings: read-out: CLH
[6] = system: HEK293; test: Cytotoxicity against HEK293 cells assessed as reduction in cell viability at 100 uM incubated for 24 hrs by CCK-8 assay; format: toxicity, cell-based; settings: human, hek293, 24 h
[7] = system: Escherichia coli; test: Antibacterial activity against Escherichia coli ATCC 25922 incubated for 16 to 18 hrs by absorbance based analysis; format: functional; settings: time 16-18 hrs
[8] = Metabolic stability in human liver microsomes assessed as liver intrinsic clearance at 1 uM by LC-MS/MS analysis; format: ADME, Microsome; settings: read-out: CLH
[9] = system: Staphylococcus aureus; test: Antibacterial activity against fluoroquinolone-sensitive methicillin resistant Staphylococcus aureus USA500 incubated for 16 to 18 hrs by absorbance based analysis; format: functional; settings: time 16-18 hrs
[10] = Metabolic stability in rat liver microsomes assessed as microsomal intrinsic clearance at 1 uM by LC-MS/MS analysis; format: ADME, Microsome; settings: read-out: CLH
[11] = Metabolic stability in human liver microsomes assessed as elimination half life at 1 uM by LC-MS/MS analysis; format: ADME, Microsome; settings: read-out: beta t1/2
[12] = system: A549; test: Cytotoxicity against human A549 cells assessed as reduction in cell viability at 100 uM incubated for 24 hrs by CCK-8 assay; format: toxicity, cell-based; settings: a549, 24 h
[13] = Metabolic stability in rat liver microsomes assessed as elimination half life at 1 uM by LC-MS/MS analysis; format: ADME, Microsome; settings: read-out: beta t1/2
[14] = Metabolic stability in human liver microsomes assessed as compound remaining at 1 uM measured after 60 mins by LC-MS/MS analysis; format: ADME, Microsome; settings: read-out: Stability
[15] = Metabolic stability in rat liver microsomes assessed as drug elimination rate constant at 1 uM by LC-MS/MS analysis; format: ADME, Microsome
[16] = system: Staphylococcus aureus; test: Antibacterial activity against fluoroquinolone-sensitive methicillin resistant Staphylococcus aureus ATCC 33591 incubated for 16 to 18 hrs by absorbance based analysis; format: functional; settings: time 16-18 hrs
[17] = AUC (0 to infinity) in male Sprague-Dawley rat at 10 mg/kg, iv administered as single dose and measured upto 24 hrs by LC-MS/MS analysis; format: ADME, organism-based; settings: in vivo
[18] = Half life in male Sprague-Dawley rat at 20 mg/kg, po administered as single dose and measured upto 24 hrs by LC-MS/MS analysis; format: ADME, organism-based; settings: in vivo
[19] = AUC (0 to infinity) in male Sprague-Dawley rat at 20 mg/kg, po administered as single dose and measured upto 24 hrs by LC-MS/MS analysis; format: ADME, organism-based; settings: in vivo
[20] = Acute toxicity in ICR mouse assessed as lung damage at 400 to 2000 mg/kg, po administered as single dose via oral gavage and measured on day 9; format: organism-based; settings: in vivo, 216 h, dose 400-2000 mg/kg, time 9 day
[21] = Initial drug concentration in male Sprague-Dawley rat at 10 mg/kg, iv administered as single dose and measured upto 24 hrs by LC-MS/MS analysis; format: ADME, organism-based; settings: in vivo
[22] = Cmax in male Sprague-Dawley rat at 20 mg/kg, po administered as single dose and measured upto 24 hrs by LC-MS/MS analysis; format: ADME, organism-based; settings: in vivo
[23] = Acute toxicity in male ICR mouse assessed as effect on body weight at 400 to 2000 mg/kg, po administered as single dose via oral gavage and measured for 8 days; format: organism-based; settings: in vivo, 192 h, dose 400-2000 mg/kg, time 8 day
[24] = MRT (0 to t) in male Sprague-Dawley rat at 10 mg/kg, iv administered as single dose and measured upto 24 hrs by LC-MS/MS analysis; format: ADME, organism-based; settings: in vivo
[25] = Acute toxicity in ICR mouse assessed as effect on food intake at 400 to 2000 mg/kg, po administered as single dose via oral gavage and measured for 8 days; format: organism-based; settings: in vivo, 192 h, dose 400-2000 mg/kg, time 8 day
[26] = AUC (0 to t) in male Sprague-Dawley rat at 20 mg/kg, po administered as single dose and measured upto 24 hrs by LC-MS/MS analysis; format: ADME, organism-based; settings: in vivo
[27] = MRT (0 to infinity) in male Sprague-Dawley rat at 20 mg/kg, po administered as single dose and measured upto 24 hrs by LC-MS/MS analysis; format: ADME, organism-based; settings: in vivo
[28] = target: Voltage-gated inwardly rectifying potassium channel KCNH2 (Homo sapiens, UniProt Q12809); test: Inhibition of hERG expressed in CHO cells at -80 mV holding potential by manual patch clamp method; format: toxicity, cell-based
[29] = Acute toxicity in ICR mouse assessed as liver damage at 400 to 2000 mg/kg, po administered as single dose via oral gavage and measured on day 9; format: organism-based; settings: in vivo, 216 h, dose 400-2000 mg/kg, time 9 day
[30] = Clearance in male Sprague-Dawley rat at 10 mg/kg, iv administered as single dose and measured upto 24 hrs by LC-MS/MS analysis; format: ADME, organism-based; settings: in vivo
[31] = Acute toxicity in ICR mouse assessed as brain damage at 400 to 2000 mg/kg, po administered as single dose via oral gavage and measured on day 9; format: organism-based; settings: in vivo, 216 h, dose 400-2000 mg/kg, time 9 day
[32] = system: Staphylococcus aureus; test: Antibacterial activity against methicillin resistant Staphylococcus aureus ATCC 33591 measured after 15 passages; format: functional
[33] = Tmax in male Sprague-Dawley rat at 20 mg/kg, po administered as single dose and measured upto 24 hrs by LC-MS/MS analysis; format: ADME, organism-based; settings: in vivo
[34] = AUC (0 to t) in male Sprague-Dawley rat at 10 mg/kg, iv administered as single dose and measured upto 24 hrs by LC-MS/MS analysis; format: ADME, organism-based; settings: in vivo
[35] = Acute toxicity in ICR mouse assessed as spleen damage at 400 to 2000 mg/kg, po administered as single dose via oral gavage and measured on day 9; format: organism-based; settings: in vivo, 216 h, dose 400-2000 mg/kg, time 9 day
[36] = Acute toxicity in ICR mouse assessed as abnormal behaviors at 400 to 2000 mg/kg, po administered as single dose via oral gavage and measured for 8 days; format: organism-based; settings: in vivo, 192 h, dose 400-2000 mg/kg, time 8 day
[37] = Acute toxicity in ICR mouse assessed as animal death at 400 to 2000 mg/kg, po administered as single dose via oral gavage and measured for 8 days; format: organism-based; settings: in vivo, 192 h, dose 400-2000 mg/kg, time 8 day
[38] = Oral bioavailability in male Sprague-Dawley rat at 20 mg/kg administered as single dose and measured upto 24 hrs by LC-MS/MS analysis; format: ADME, organism-based; settings: in vivo
[39] = Acute toxicity in ICR mouse assessed as heart damage at 400 to 2000 mg/kg, po administered as single dose via oral gavage and measured on day 9; format: organism-based; settings: in vivo, 216 h, dose 400-2000 mg/kg, time 9 day
[40] = Acute toxicity in female ICR mouse assessed as effect on body weight at 400 to 2000 mg/kg, po administered as single dose via oral gavage and measured for 8 days; format: organism-based; settings: in vivo, 192 h, dose 400-2000 mg/kg, time 8 day
[41] = Acute toxicity in ICR mouse assessed as kidney damage at 400 to 2000 mg/kg, po administered as single dose via oral gavage and measured on day 9; format: organism-based; settings: in vivo, 216 h, dose 400-2000 mg/kg, time 9 day
[42] = MRT (0 to infinity) in male Sprague-Dawley rat at 10 mg/kg, iv administered as single dose and measured upto 24 hrs by LC-MS/MS analysis; format: ADME, organism-based; settings: in vivo
[43] = Half life in male Sprague-Dawley rat at 10 mg/kg, iv administered as single dose and measured upto 24 hrs by LC-MS/MS analysis; format: ADME, organism-based; settings: in vivo
[44] = MRT (0 to t) in male Sprague-Dawley rat at 20 mg/kg, po administered as single dose and measured upto 24 hrs by LC-MS/MS analysis; format: ADME, organism-based; settings: in vivo

Chain of Voltage-gated inwardly rectifying potassium channel KCNH2 (Q12809 whole entry): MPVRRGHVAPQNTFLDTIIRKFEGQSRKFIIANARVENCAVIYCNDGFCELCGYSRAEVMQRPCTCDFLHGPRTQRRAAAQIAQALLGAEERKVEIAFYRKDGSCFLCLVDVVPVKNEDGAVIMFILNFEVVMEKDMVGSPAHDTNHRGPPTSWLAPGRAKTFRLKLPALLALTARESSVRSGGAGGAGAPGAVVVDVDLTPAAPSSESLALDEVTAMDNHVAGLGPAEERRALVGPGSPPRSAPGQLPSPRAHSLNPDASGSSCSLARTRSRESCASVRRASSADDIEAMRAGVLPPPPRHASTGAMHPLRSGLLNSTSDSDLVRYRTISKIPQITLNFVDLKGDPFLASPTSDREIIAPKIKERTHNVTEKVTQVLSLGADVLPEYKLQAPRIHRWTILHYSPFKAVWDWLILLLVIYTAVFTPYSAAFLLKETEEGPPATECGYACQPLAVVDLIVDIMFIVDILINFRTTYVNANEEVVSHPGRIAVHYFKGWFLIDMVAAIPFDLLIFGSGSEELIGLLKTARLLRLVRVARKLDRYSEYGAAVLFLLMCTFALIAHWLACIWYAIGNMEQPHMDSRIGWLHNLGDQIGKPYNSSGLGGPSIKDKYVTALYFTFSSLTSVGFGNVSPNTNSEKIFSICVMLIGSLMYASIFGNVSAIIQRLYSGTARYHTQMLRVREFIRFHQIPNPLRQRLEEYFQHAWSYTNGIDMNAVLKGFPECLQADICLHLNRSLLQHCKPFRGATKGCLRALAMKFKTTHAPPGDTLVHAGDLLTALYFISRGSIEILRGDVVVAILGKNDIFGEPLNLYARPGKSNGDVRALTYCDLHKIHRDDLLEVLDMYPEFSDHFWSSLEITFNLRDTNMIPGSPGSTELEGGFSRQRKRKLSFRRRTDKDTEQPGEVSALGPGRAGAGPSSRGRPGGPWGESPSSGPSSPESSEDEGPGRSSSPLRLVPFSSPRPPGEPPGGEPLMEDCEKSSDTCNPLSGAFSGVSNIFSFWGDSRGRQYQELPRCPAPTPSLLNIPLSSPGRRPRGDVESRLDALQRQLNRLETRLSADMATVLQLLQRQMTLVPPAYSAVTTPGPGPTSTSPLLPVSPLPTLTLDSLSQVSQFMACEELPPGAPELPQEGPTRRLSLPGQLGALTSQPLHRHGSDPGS

Cc1ccc(Cc2ccnc(Nc3ccc4c(=O)c(C(=O)O)cn(C5CC5)c4c3)n2)cc1C
remaining at 1 h, 1 µM [1]: 49.6%
MIC [2]: 0.78 µg/mL (≈ 1.77 µM)
microsomal CLint at 1 µM [3]: 28.2 µL/min/mg
k el at 1 µM [4]: 0.000233 s⁻¹
CLint scaled at 1 µM [5]: 42.2 mL/min/kg
Activity [6]: Toxic
MIC [7]: > 64 µg/mL
CLint scaled at 1 µM [8]: 26.6 mL/min/kg
MIC [9]: 0.78 µg/mL (≈ 1.77 µM)
microsomal CLint at 1 µM [10]: 23.4 µL/min/mg
half-life at 1 µM [11]: 49.4 min
Activity [12]: Toxic
half-life at 1 µM [13]: 59.2 min
remaining at 1 h, 1 µM [14]: 41.1%
k el at 1 µM [15]: 0.0002 s⁻¹
MIC [16]: 0.5 µg/mL (≈ 1.14 µM)

O=C(O)c1cn(C2CC2)c2cc(Nc3nccc(Cc4ccc(F)cc4F)n3)ccc2c1=O
AUC(0-inf) [17]: 9100 ng·h/mL
remaining at 1 h, 1 µM [1]: 35.7%
half-life [18]: 130 min
AUC(0-inf) [19]: 171 ng·h/mL
Activity [20]: Non-Toxic
C0 at 24 h [21]: 11800 ng/mL
Cmax [22]: 31 ng/mL
MIC [2]: 0.39 µg/mL (≈ 0.87 µM)
microsomal CLint at 1 µM [3]: 30.8 µL/min/mg
Activity [23]: Non-Toxic
MRT last at 24 h [24]: 1.01 h
k el at 1 µM [4]: 0.00025 s⁻¹
Activity [25]: Non-Toxic
CLint scaled at 1 µM [5]: 60.9 mL/min/kg
Activity [6]: Non-Toxic
MIC [7]: > 64 µg/mL
AUC(0-t) at 24 h [26]: 162 ng·h/mL
MRT inf [27]: 4.2 h
IC50 [28]: > 40 µM
Activity [29]: Non-Toxic
clearance [30]: 18.5 mL/min/kg
Activity [31]: Non-Toxic
CLint scaled at 1 µM [8]: 29.1 mL/min/kg
MIC [32]: 0.25 µg/mL (≈ 0.558 µM)
MIC [9]: 0.39 µg/mL (≈ 0.87 µM)
microsomal CLint at 1 µM [10]: 33.8 µL/min/mg
Tmax [33]: 2.67 h
half-life at 1 µM [11]: 45 min
Activity [12]: Non-Toxic
AUC(0-t) at 24 h [34]: 9060 ng·h/mL
Activity [35]: Non-Toxic
Activity [36]: Non-Toxic
half-life at 1 µM [13]: 41 min
Activity [37]: Non-Toxic
remaining at 1 h, 1 µM [14]: 40.9%
bioavailability [38]: 0.9%
k el at 1 µM [15]: 0.000283 s⁻¹
Activity [39]: Non-Toxic
MIC [16]: 0.25 µg/mL (≈ 0.558 µM)
Activity [40]: Non-Toxic
Activity [41]: Non-Toxic
MRT inf [42]: 1.2 h
half-life [43]: 254 min
MRT last at 24 h [44]: 3.51 h

CN[C@H](CC(C)C)C(=O)N[C@H]1C(=O)N[C@@H](CC(N)=O)C(=O)N[C@H]2C(=O)N[C@H]3C(=O)N[C@H](C(=O)N[C@H](C(=O)O)c4cc(O)cc(O)c4-c4cc3ccc4O)[C@H](O)c3ccc(c(Cl)c3)Oc3cc2cc(c3O[C@@H]2O[C@H](CO)[C@@H](O)[C@H](O)[C@H]2O[C@H]2C[C@](C)(N)[C@H](O)[C@H](C)O2)Oc2ccc(cc2Cl)[C@H]1O [VANCOMYCIN]
MIC [2]: 3.12 µg/mL (≈ 2.15 µM)
MIC [7]: > 64 µg/mL
Activity [32]: inactive
MIC [9]: 0.78 µg/mL (≈ 0.538 µM)

O=C(O)c1cn(C2CC2)c2cc(Nc3nccc(Cc4cccc(Cl)c4)n3)c(F)cc2c1=O
MIC [2]: 6.25 µg/mL (≈ 13.4 µM)
MIC [7]: > 64 µg/mL
MIC [9]: 6.25 µg/mL (≈ 13.4 µM)
MIC [16]: 2 µg/mL (≈ 4.3 µM)

Source: ChEMBL document CHEMBL5500358, “Identification of CH2-linked quinolone-aminopyrimidine hybrids as potent anti-MRSA agents: Low resistance potential and lack of cross-resistance with fluoroquinolone antibiotics” (Eur J Med Chem, 2024)
